The values that follow come from US20240074473A1, “METHOD FOR INDUCING HYPERTROPHIC MUSCLE FIBERS FOR INDUSTRIAL MEAT PRODUCTION” (Yeda Research and Development Co. Ltd., priority 2021, published 2024).

Structures can show the parent of a compound that is named as a salt. Where two headings read alike, the source gives them in different places.

The nature of data set [1]: Risk categorization of cell culture media ingredients. The text has this: Category 1: These cell culture media components are food ingredients/additives that are GRAS or permitted by federal regulation without limitation on use. Exemplary compounds in this category include innocuous ingredients such as sugars, pH buffers, water soluble vitamins, and common antioxidants such as tocopherols.
Category 2: These cell culture media components are common dietary nutrients and are anticipated to have GRAS status for food use or be permitted by regulation for addition to food. Examples of such compounds include most of the inorganic salts and macronutrients that are present within the cell culture media. […] Majority of nutrients present within the poultry cell-based meat may be readily measured using common validated methods for food composition testing. Batch analyses of multiple lots of the finished product may be obtained to validate the above assumptions. In some instances, consideration of established safe levels (e.g., ADI, UL) derived from a relevant authoritative body (e.g., U.S. FDA, EFSA, JECFA, FSANZ, U.S. EPA) may be leveraged to support safety. If comparisons of anticipated dietary intakes relative to an authoritative reference intake value is used, consideration of additive intakes from all dietary sources may be considered. In the absence of an authoritative reference intake value, published NOAELs from animal toxicology studies may be used to evaluate safety using standard scientific procedures for food safety evaluation. A margin of exposure (MoE) of 100-fold or greater between the NOAEL and estimated dietary intakes from food exposures is typically considered adequate to support safety. in situations where the MoE is <100-fold, additional measures for further reduction of the media component may be necessary, or further characterization of intraspecies/interspecies differences in metabolism may be necessary. These situations also require careful consideration of the regulatory status on a case-by basis (e.g., premarket approval as a food additive or GRAS evaluation required).
For example, situations where the compound is not detectable in finished product or is present at equivalent levels in comparator foods, compounds that are thermo-labile and will be digested during cooking, and/or compounds that are expected to be digested to innocuous compounds following ingestion. Examples of compounds meeting the aforementioned conditions would include recombinant growth factors and serum components. For Category 3 substances a final consideration in the safety assessment process may involve hazard characterization of the potential for a substance to produce toxic biological effects outside of the endpoints measured in a sub-chronic rat toxicity study. Substances with biological activity may require additional hazard characterization related to reproductive and developmental toxicity, or immunotoxicity. Considerations for allergenicity, biological effects in humans (e.g., effects on blood pressure), and synergistic effects with other media components also may be evaluated. […] Examples of category 3 components include recombinant proteins and animal serum.

The conditions of data set [2]: cited from earlier work; for Safe Reference Level for Human Dietary Intake: Iron UL: as iron.
Data set [3] can be described thus: Maximum estimated dietary exposure to media ingredients per 100 g serving. The following applies: assumption of complete transfer of media components to the finished product on a wt/wt basis.
Data set [4] deals with primary chicken myoblasts. Nature of the data set: Fusion index of primary chicken myoblasts (MyHC immunostaining). The class given is cell-based. As to conditions: primary chicken myoblasts, proliferation medium, ionophore 2 uM plus ERKi 1 uM, 48 hours. The method, then:
Chicken primary derived myoblasts were used as a model to evaluate the efficiency of SCH772984 as the ERKi, compared to conventional differentiation medium (DM) for the purpose of producing muscle (meat) in tissue culture conditions. Chicken myoblasts were isolated from chicken embryos and expanded in proliferation medium. When sufficient cell numbers were acquired, cells were seeded on tissue culture plates and allowed to adhere for 24 hours. Then medium was changed to either PM supplemented with ERKi or DM. At 24-hours post treatment, the cells that received ERKi were replenished with fresh PM (without the addition of more ERKi), and DM treated cells were replenished with fresh DM. Media was replaced daily over a period of 72 hours.
Evaluation of muscle fiber formation was achieved by fixing the cells and staining for expression of Myosin Heavy Chain (FIG. 9A). […] Yet, treatment with conventional DM only began to form fibers beginning at 72-hours post treatment. A fusion index was quantified at 72 hours post treatment (FIG. 9B), in which the percentage of total nuclei present in a myotube (MyHC positive cell with 2 or more nuclei).
Primary chicken myoblast isolation and treatment: chicken myoblasts were isolated from broiler chicken embryos at day 18 from breast and leg muscles by using Trypsin B. Following tissue dissociation, the cell suspension was grown for 3-4 days on 10% Matrigel coated plates. At the first passage, the cells were lifted and pre-plated twice for 30 minutes to enrich for myoblasts and reduce the number of fibroblasts. Then cells were seeded at 8,000/well of optical-96 well plates in proliferation medium. 24 hours after plating, media was aspirated and replaced with the indicated treatment conditions in proliferation media or differentiation media (as indicated). After 24 hours with treatment, the media was aspirated and all wells were replenished with fresh proliferation media or differentiation media without any treatment. This was repeated daily. Cells were fixed at 48 hours after treatment. Compounds were purchased from Cayman Chemicals.
Immunofluorescent staining: Cells were fixed with ice cold 4% PFA in PBS for 10 minutes, permeabilized with 0.5% Triton X-100 in PBS for 6 minutes, and blocked in PBS with 0.025% tween, 10% normal horse serum and 10% normal goat serum for 1 hour at room temperature. Primary antibody incubation was done in blocking buffer overnight at 4 degrees, with the following antibodies: Myosin Heavy Chain (MyHC, MF20, DSHB hybridoma supernatant 1:10, alpha-actinin (SIGMA A7811). Cells were washed 3 times in PBS with 0.025% tween and then incubated with appropriate secondary antibodies in PBS 1 hour. Nuclei were labeled with DAPI (SIGMA D9542, 5 ug/ml). All fusion indexes and imaging analysis were performed on at least 1000 per technical repeat.

Where [5] appears, read: cell culture media ingredient used during meat production.
[6] abbreviates: human dietary intake, niacinamide and magnesium sulfate: supplements.

On to `CC(=O)Oc1c(C)c(C)c2c(c1C)CCC(C)(CCCC(C)CCCC(C)CCCC(C)C)O2` (racemic) [DL-ALPHA-TOCOPHEROL ACETATE], for which, in data set [1] (setting [5]), the “Risk Assessment Category” value was determined as 1. Further, in data set [2] (human dietary intake), the “Safe Reference Level for Human Dietary Intake: UL (Tolerable Upper Limit)” value (shortened to “Safe Reference Level … (Tolerable Upper Limit)”) is reported as “UL = 1000 mg/d”. Moreover, the “Maximum Estimated Exposure per 100 g serving” value in data set [3] was 8 mg.
On to `[Ca+2].[Cl-].[Cl-]` [CALCIUM CHLORIDE (ANHY)], for which the “Risk Assessment Category” value in data set [1] (setting [5]) came to 1. Further, in data set [2] (human dietary intake), the “Safe Reference Level for Human Dietary Intake (kind of level not given)” value (from here on “Safe Reference Level … (kind of level not given)”) was 1 to 3 g/day. The “Maximum Estimated Exposure per 100 g serving” value in data set [3] is given as 760 mg.
Consider `Cc1c(C)c2c(c(C)c1O)CC[C@@](C)(CCC[C@H](C)CCC[C@H](C)CCCC(C)C)O2` [D-ALPHA-TOCOPHEROL], for which the “Risk Assessment Category” value in data set [1] (setting [5]) is given as 1. In addition, the “Safe Reference Level … (Tolerable Upper Limit)” value in data set [2] (human dietary intake) is “UL = 1000 mg/d”. In addition, the “Maximum Estimated Exposure per 100 g serving” value in data set [3] was 1.6 mg.
Turning to `O.O.O.O.O.O.O.O=S(=O)([O-])[O-].[Fe+2]` [FERROUS SULFATE-7H2O], the “Risk Assessment Category” value in data set [1] is on record as 2. Besides, the “Safe Reference Level for Human Dietary Intake: Iron UL” value in data set [2] (human dietary intake) is “Iron UL = 40 to 45 mg”. Besides, in data set [3], the “Maximum Estimated Exposure per 100 g serving” value is reported as 2.5 mg.
On to `CCCCC/C=C\C/C=C\CCCCCCCC(=O)O` [LINOLEIC ACID], for which the “Risk Assessment Category” value in data set [1] stood at 2. In data set [2] (human dietary intake), the “Safe Reference Level for Human Dietary Intake: AI (Adequate Intake)” value was “AI = 7 to 12 g/d”. For the same molecule, the “Maximum Estimated Exposure per 100 g serving” value in data set [3] is on record as 1 mg.
On to `[Cl-].[Cl-].[Mg+2]` [MAGNESIUM CHLORIDE (ANHY)], for which the “Risk Assessment Category” value in data set [1] (setting [5]) is listed as 1. Besides, in data set [2] (human dietary intake), the “Safe Reference Level … (kind of level not given)” value was 65 to 350 mg. In data set [3], the “Maximum Estimated Exposure per 100 g serving” value is recorded as 170 mg.
`O=S(=O)([O-])[O-].[Mg+2]` [MAGNESIUM SULFATE (ANHY)]: the “Risk Assessment Category” value in data set [1] (setting [5]) worked out at 1. Besides, in data set [2] (setting [6]), the “Safe Reference Level … (Tolerable Upper Limit)” value is listed as “UL = 65 to 350 mg”. Also, in data set [3], the “Maximum Estimated Exposure per 100 g serving” value is given as 493 mg.
As to `O.O=S(=O)([O-])[O-].[Mn+2]` [MANGANESE SULFATE H2O], the “Risk Assessment Category” value in data set [1] (setting [5]) was 1. Also, the “Safe Reference Level … (kind of level not given)” value in data set [2] (human dietary intake) is 0.002 to 0.011 g/day. Besides, in data set [3], the “Maximum Estimated Exposure per 100 g serving” value was 0.003 mg.
Turning to `NC(=O)c1cccnc1` [NIACINAMIDE (NICOTINAMIDE), NIACINAMIDE], the “Risk Assessment Category” value in data set [1] was found to be 1. The “Safe Reference Level … (Tolerable Upper Limit)” value in data set [2] (setting [6]) was “UL = 10 to 35 mg”. For the same molecule, the “Maximum Estimated Exposure per 100 g serving” value in data set [3] was 25 mg.
As for `[Cl-].[K+]` [POTASSIUM CHLORIDE], in data set [1] (setting [5]), the “Risk Assessment Category” value is listed as 1. Also, in data set [2] (human dietary intake), the “Safe Reference Level for Human Dietary Intake (UL) given as symbol” value (shortened to “Safe Reference Level … as symbol”) is reported as “UL = NS”. The “Maximum Estimated Exposure per 100 g serving” value in data set [3] was 4000 mg.
As for `[Cl-].[Na+]` [SODIUM CHLORIDE], in data set [2] (human dietary intake), the “Safe Reference Level … (kind of level not given)” value is 2.3 g/day.
As to `CC(=O)C(=O)[O-].[Na+]` [SODIUM PYRUVATE], in data set [1] (setting [5]), the “Risk Assessment Category” value was 3. For the same molecule, the “Safe Reference Level for Human Dietary Intake, in words” value in data set [2] (dietary intakes within the range of OSL values reported in human investigations) is “Dietary intakes within”. The “Maximum Estimated Exposure per 100 g serving” value in data set [3] is 1000 mg.
Take `Cc1ncc(C[n+]2csc(CCO)c2C)c(N)n1` [THIAMINE-HCL]: in data set [1], the “Risk Assessment Category” value stood at 1. Also, in data set [2] (human dietary intake), the “Safe Reference Level … as symbol” value was “UL = NS”. For the same molecule, the “Maximum Estimated Exposure per 100 g serving” value in data set [3] is reported as 18 mg.
On to `CCCCCCCC/C=C\CCCCCCCC(=O)OCCOCC(OCCO)C1OCC(OCCO)C1OCCO` (centres unmarked) [TWEEN 80], for which the “Risk Assessment Category” value in data set [1] (setting [5]) came out at 2. Moreover, the “Safe Reference Level for Human Dietary Intake: ADI (Acceptable Daily Intake)” value in data set [2] (human dietary intake) is given as “ADI = 10 mg/kg bw/d”. Further, the “Maximum Estimated Exposure per 100 g serving” value in data set [3] is recorded as 4 mg.
`C=C1CC[C@H](O)C/C1=C/C=C1\CCC[C@]2(C)[C@@H]([C@H](C)/C=C/[C@H](C)C(C)C)CC[C@@H]12` [VITAMIN D2 (ERGOCALCIFEROL), ERGOCALCIFEROL]: in data set [1], the “Risk Assessment Category” value was 1. The “Safe Reference Level … (Tolerable Upper Limit)” value in data set [2] (human dietary intake) is “UL = 100 ug/d”. In addition, the “Maximum Estimated Exposure per 100 g serving” value in data set [3] is 0.024 mg.
In the case of `O.O.O.O.O.O.O.O=S(=O)([O-])[O-].[Zn+2]` [ZINC SULFATE-7H20], in data set [1], the “Risk Assessment Category” value was determined as 1. Moreover, in data set [2] (human dietary intake), the “Safe Reference Level … (Tolerable Upper Limit)” value is given as “UL = 5 to 40 mg/day”. Also, in data set [3], the “Maximum Estimated Exposure per 100 g serving” value is recorded as 15 mg.
As to `CCOC(=O)CCCCCCCCCCCN(C)C(=O)CO[C@H](C)[C@@H](C)OCC(=O)N(C)CCCCCCCCCCCC(=O)OCC` [calcium ionophore I], the Fusion index in data set [4] is 89%.
Take `C[C@H](CCC(=O)O)C[C@H](C)C[C@H](C)C(=O)/C=C(\O)[C@H](C)C[C@H](C)C/C=C/[C@@H](C)[C@@H](O)[C@@H](C)[C@@H](O)C[C@@H]1CC[C@@](C)([C@H]2CC[C@@](C)([C@@H](C)O)O2)O1` [ionomycin]: in data set [4], the Fusion index stood at 89%.
As to CALCIUM D-PANTOTHENATE, the “Safe Reference Level … as symbol” value in data set [2] (human dietary intake) was “UL = NS”. The “Maximum Estimated Exposure per 100 g serving” value in data set [3] is 100 mg.
With COPPER SULFATE-PENTAHYDRATE, the “Safe Reference Level … (kind of level not given)” value in data set [2] (human dietary intake) is reported as 1 to 10 mg. Besides, the “Maximum Estimated Exposure per 100 g serving” value in data set [3] is 3 mg.
As to FERRIC CITRATE, in data set [2] (human dietary intake), the “Safe Reference Level for Human Dietary Intake: Iron UL” value was “Iron UL = 40 to 45 mg”.
